Assay results reported in patent publication US7186703B2, “Derivatives of branched-chain lipophilic molecules and uses thereof” (D-Pharm Ltd., priority 2000, dated 2007).
“And” between values parts separate entries of the source, which are not always exact repeats. Identical values can stand only once. Like-named read-outs stand apart in the source and are kept apart here.

Tests used:
[1] = system: HL60 myeloid leukemia cell line; assay: MTT cytotoxicity, HL60; assay type: cell-based, human; settings: HL60, three days, read-out: EC50 (50% reduction in cell viability)
Method: (§1) The cytotoxic activity of various phospho-derivatives of branched-chain fatty acids (DP-BFAs) was assayed in vitro in cell cultures that include normal and malignant cell types. The following cell systems were used: • Primary fibroblasts (human) • Normal bone marrow (BM) cells (mouse) • Primary bronchial epithelial cells (human, from Clonetics, cat. no. CC-2541) • Caco-2—colon cancer cell line (human, ATTC, HTB-37) • C6 glioma cell line (rat, ATCC, CRL-2199) • Neuro2a—neuroblastoma cell line (mouse, ATCC, CCL-131) • SKBR-3—breast cancer cell line (human, ATTC, HTB-30) • HL60—myeloid leukemia cell line (human, ATCC, CCL-240) • U937—myeloid leukemia cell line (human)
(§2) Cells were seeded in a microtiter plate in MEM containing 2 mM L-glutamine, 100 units/ml penicillin, 100 ug/ml streptomycin and 10% FCS at 37° C. The cultured cells were incubated, during their linear growth phase in the absence (control group) or presence of various DP-BFAs as indicated. The final concentrations of the tested DP-BFAs ranged from 1.5 to 200 microMolars. At the end of the incubation period, which was five days for the bone marrow cells and three days for all the other cell lines, the cytotoxic effect of the added P-BFA on the cells was estimated by using the colorimetric MTT assay. The MTT assay (Mosmann (1983) J. Immunol Methods 65: 55–63) measures mitochondrial reductase activity and serves for quantitative assessment of cellular viability. Drug concentration that causes 50% reduction in cell viability in comparison to the control group, is defined as EC50. The EC50 values of the tested DP-BFA compounds were calculated from dose response curves established for each of the different assayed cell lines.
(§3) Each EC50 value is an average of EC50 values derived from 1–5 independent experiments.

[2] = system: Neuro2a neuroblastoma cell line; assay: MTT cytotoxicity, Neuro2a; assay type: cell-based, mouse; settings: three days, read-out: EC50 (50% reduction in cell viability)
Method: as §1, §2, §3

[3] = system: blood brain barrier (BBB); assay: BBB opening in C6 glioma-bearing rats, Evans blue accumulation in non-tumor brain; assay type: in vivo, Sprague Dawley rats; settings: concentrations around EC50 (Mannitol 25%), unilateral 30 s infusion
Method: (§4) In order to study the ability of DP-BFA compounds to modulate blood tumor barrier (BTB), a model system of C6 glioma-bearing rats, was employed.
(§5) Sprague Dawley (SD) rats were inoculated with C6 gliosarcoma cells following the procedure described by Bartus et al. (Exp Neurol (1996); 142:14–28). A small burr-hole was made in the frontal scalp bone of the rat fixed in a stereotaxis apparatus. Using a Hamilton syringe, 10 μl or 5 μl of media, containing 2.5×10^5 C6 gliosarcoma cells were inoculated into the frontal cortex. Coordinates were 1 mm posterior of bregma, 2.5 mm—lateral, and 3 mm—depth. The needle remained in the place for 5 min. After removal of the needle, fascia and scalp were sutured. The rats were checked 6–8 days after inoculation, when tumors of sufficient size (20–60 mg) had developed. The tumor was weighed after F—Na visualization and dissection. Parts of the rats' brains were subject to histological examinations and monitored for Evans Blue and Fluorescein uptake into ipsilateral tumour tissue, peritumoural tissue and contralateral tissue.
(§6) The bilateral tumor model system of C6 glioma-bearing rats described in Example 23 above was employed for screening of various derivatives of DP-BFA for their ability to permeabilize the blood brain barrier (BBB) in comparison to their effect on the blood tumor barrier (BTB). The experimental procedure described in Example 23 was followed except that the tumor-bearing rats were further treated with DP-BFA. The tested compounds, at concentrations around their EC50 values, were unilaterally infused into the external carotis artery over 30 seconds as described in Example 17. Animals treated with vehicle only serve as a control group. Permeabilization effect was quantitated by measuring accumulation of albumin bound Evans blue dye in tumor (T) versus non-tumor (NT) tissues.
(§7) Specificity index is defined as the ratio between the levels of EB accumulated in tumor and those accumulated in non-tumor brain tissues (T/NT).

C6 gliosarcoma tumor = assay: Anti-tumor activity in C6 glioma-bearing rats, tumor volume (Example 27); assay type: in vivo, rat; settings: for Tumor volume (mm^3) ± SE: control 8.1 ± 2.22; for anti-tumor effect on glioma growth (in words): rat, in vivo
Text: The anti-tumor effects of various P-BFAs were studied in the in vivo model system described above in Example 17. Tested P-BFAs were intra-arterially administered at the concentrations previously determined as being effective in permeabilization of the BBB and BTB for Evans blue and Fluorescein extravasation. The experimental procedure for tumor inoculation, as described in Example 23, was followed.
On Day 3–4 following inoculation of the C6 gliosarcoma cells, rat were cannulated through external carotid artery and the tested P-BFAs were infused over 30 seconds, as described in Example 17, except that in this experiment no markers were administered. The treated rats were maintained until Day 7–9, and then sacrificed. Coronal sections were obtained, stained by eosin-hematoxylin, and reviewed histologically to determine tumor volume. Animals treated with vehicle only serve as control. Standard error and Student's test for statistical significance were used.

[4] = system: Caco-2 colon cancer cell line; assay: MTT cytotoxicity, Caco-2; assay type: cell-based, human; settings: Caco-2, three days, read-out: EC50 (50% reduction in cell viability)
Method: as §1, §2, §3

[5] = system: blood tumor barrier (BTB) of C6 glioma; assay: BTB opening in C6 glioma-bearing rats, Evans blue accumulation in tumor; assay type: in vivo, Sprague Dawley rats; settings: for EC50: C6 glioma-bearing rats; for BTB EB μg/g Tumor: concentrations around EC50 (Mannitol 25%), unilateral 30 s infusion; for Specificity Tumor/Non-tumor (T/NT): ratio of EB accumulated in tumor and non-tumor brain
Method: as §4, §5, §6, §7

[6] = system: U937 myeloid leukemia cell line; assay: MTT cytotoxicity, U937; assay type: cell-based, human; settings: U937, three days, read-out: EC50 (50% reduction in cell viability)
Method: as §1, §2, §3

[7] = assay type: in vivo; settings: rats, sodium salt; for LC (minimal concentration that caused death): i.a., viability monitored 24 hours
Method: DP-BFA molecules were evaluated for safety and toxicity. Increasing doses of the tested compounds were administered intra-arterially (i.a.) into rats following the protocol described above in Example 17. Animal viability was monitored for 24 hours to evaluate lethal concentrations (LC). LC is defined as the minimal concentration that caused death.
Safety index is defined as the ratio between the lethal dose (LC) and the minimal effective concentration (MEC), wherein MEC corresponds to a calculated concentration of the tested compound that elicits accumulation of three times the amount of Evans blue accumulated in control animals treated with vehicle only, i.e. total accumulation of 3 μg EB. The higher the LC/MEC ratio is, the higher the safety index.

CCCCCCCCCCCCC(CCC)C(=O)OCCOP(=O)([O-])OCC[N+](C)(C)C (stereo not drawn) [3,12-MEG-PC, 2-(2′-Propyltetradecanoyloxy)ethylphosphocholine]
EC50 ([1]; Homo sapiens, HL-60, 72 h): 20 µM | EC50 ([2]; Mus musculus, N2a, 72 h): 70 µM | BBB EB μg/g Non-tumor brain [3]: 6 µg/g | Tumor volume (mm^3) ± SE (C6 gliosarcoma tumor; P-BFA 10 μM i.a.): 2.88 ± 0.6 mm^3 | anti-tumor effect on glioma growth (in words) (C6 gliosarcoma tumor): significant anti-tumor activity | EC50 ([4]; Homo sapiens, 72 h): 75 µM | EC50 ([5]; Rattus norvegicus): 20 µM | BTB EB μg/g Tumor [5]: 12 µg/g | Specificity Tumor/Non-tumor (T/NT) [5]: 2 | EC50 ([6]; Homo sapiens, U-937, 72 h): 9 µM | LC (minimal concentration that caused death) [7]: 15 ± 2 µM | Safety LC/MEC [7]: 1.5

2-(4′-Hexadecanoyloxy)ethoxyethyl phosphate [3,12-DEG-PO4]
BBB EB μg/g Non-tumor brain [3]: 2.0 ± 0.2 µg/g | anti-tumor effect on glioma growth (in words) (C6 gliosarcoma tumor): most pronounced anti-tumor effect | EC50 [5]: 7 ± 2 µM | BTB EB μg/g Tumor [5]: 34 ± 8 µg/g | Specificity Tumor/Non-tumor (T/NT) [5]: 22 and 22 ± 5 | LC (minimal concentration that caused death) [7]: 30 ± 5 µM

CCCCCCCCCCCCC(CCC)C(=O)OCCOCCOP(=O)([O-])[O-].[Na+].[Na+] (stereo not drawn) [3,12-DEG-PO4Na2, 2-[2′-(2″-Propyltetradecanoyloxy)-ethoxy]ethyl Disodium Phosphate]
EC50 [2]: 58 µM | Tumor volume (mm^3) ± SE (C6 gliosarcoma tumor; P-BFA 30 μM i.a.): 1.6 ± 0.4 mm^3 | EC50 [4]: 40 µM | EC50 [6]: 25 µM

CCCCCCCCCCCCC(CCC)OP(=O)([O-])OCC[N+](C)(C)C (stereo not drawn) [3,12-PC, 4-Hexadecanyl phosphocholine]
EC50 [1]: 47 µM | BBB EB μg/g Non-tumor brain [3]: 10 ± 2 µg/g | Tumor volume (mm^3) ± SE (C6 gliosarcoma tumor; P-BFA 50 μM i.a.): 3.8 ± 0.8 mm^3 | EC50 [4]: 150 µM | EC50 [5]: 52 ± 7 µM | BTB EB μg/g Tumor [5]: 17 ± 2 µg/g | Specificity Tumor/Non-tumor (T/NT) [5]: 1.8 ± 0.5 | LC (minimal concentration that caused death) [7]: 80 ± 16 µM | Safety LC/MEC [7]: 3.5

CCCCCCCCCCCCC(CCC)C(=O)OCCOCCOP(=O)([O-])OCC[N+](C)(C)C (stereo not drawn) [3,12-DEG-PC, 2-(2′-Propyltetradecanoyloxy)ethoxyethylphosphocholine]
EC50 ([1]; Homo sapiens, HL-60, 72 h): 11 µM | EC50 ([2]; Mus musculus, N2a, 72 h): 134 µM | BBB EB μg/g Non-tumor brain [3]: 5 µg/g | Tumor volume (mm^3) ± SE (C6 gliosarcoma tumor; P-BFA 60 μM i.a.): 3.9 ± 1.0 mm^3 | EC50 ([4]; Homo sapiens, 72 h): 113 µM | EC50 ([5]; Rattus norvegicus): 60 µM | BTB EB μg/g Tumor [5]: 11 µg/g | Specificity Tumor/Non-tumor (T/NT) [5]: 2 | EC50 ([6]; Homo sapiens, U-937, 72 h): 6 µM | LC (minimal concentration that caused death) [7]: 300 ± 60 µM | Safety LC/MEC [7]: 20

CCCCCCCCCCCCC(CCC)C(=O)[O-].[Na+] (stereo not drawn) [3,12-Na, reference compound]
EC50 [2]: 76 µM | BBB EB μg/g Non-tumor brain [3]: 43 ± 9 µg/g | EC50 [4]: 100 µM | EC50 [5]: 22 ± 4 µM | BTB EB μg/g Tumor [5]: 44 ± 8 µg/g | Specificity Tumor/Non-tumor (T/NT) [5]: 1.1 ± 0.3 | EC50 [6]: 68 µM | LC (minimal concentration that caused death) [7]: 40 ± 10 µM | Safety LC/MEC [7]: 6.1
